Measurements published in patent US12291518B2, “Thyroid hormone receptor agonists and use thereof” (Eccogene Inc., priority 2020, dated 2025).

What was measured:
THR alpha-LBD = target: T1, THR alpha-LBD (Homo sapiens, UniProt P10827); assay: THR-α Coactivator Peptide Recruitment Assay (LanthaScreen TR-FRET); assay type: biochemical; details: TR-FRET coactivator recruitment, THR alpha-LBD 0.25 nM; for EC50: read-out: THRα EC50
T1 construct: except that THR alpha-LBD of a final concentration 0.25 nM was used; purchased Invitrogen PV4687
Description: (§1) A time-resolved FRET (TR-FRET) assay was used to test representative compounds of the application.
(§2) THR-β Coactivator Peptide Recruitment Assay were conducted by using Invitrogen's LanthaScreen™ TR-FRET Thyroid Receptor beta Assay Kit (Catalog no. PV4686). Binding of an agonist to the nuclear receptor causes a subsequent binding of a coactivator peptide, resulting in fluorescence energy transfer from the labelled nuclear receptor to the proximal coactivator peptide, which reflects the binding affinity of the agonist and the nuclear receptor. The assay was conducted by following the manufacturer's instructions. Briefly, THR beta-LBD (the final concentration is 0.5 nM) was added to the 384-well assay plate containing test compounds, followed by addition of Fluorescein-SRC2-2 coactivator peptide and terbium (Tb)-labeled anti-GST antibody. The final concentration of THR beta-LBD, Fluorescein-SRC2-2 coactivator peptide and terbium (Tb)-labeled anti-GST antibody is 0.5 nM, 0.1 nM and 2 nM, respectively. After a gentle mix and incubation at room temperature for 2 h, the signal was read on the EnVision Multilabel Plate Reader at wavelengths of 520 nm and 495 nm. TR-FRET ratio was calculated by dividing the emission signal at 520 nm and the emission signal at 495 nm, and then was plotted against a sigmoidal dose response curve (four parameters, GraphPad™ Prism 8) to determine the EC50 value.
THR-α Coactivator Peptide Recruitment Assay were conducted by using Invitrogen's LanthaScreen™ TR-FRET Thyroid Receptor alpha Assay Kit (Catalog no. PV4687), following the same method described above except that THR alpha-LBD of a final concentration 0.25 nM was used.

THR beta-LBD = target: T2, THR beta-LBD (Homo sapiens, UniProt P10828); assay: THR-β Coactivator Peptide Recruitment Assay (LanthaScreen TR-FRET); assay type: biochemical; details: TR-FRET coactivator recruitment, THR beta-LBD 0.5 nM; for EC50: read-out: THRβ EC50
T2 construct: THR beta-LBD (the final concentration is 0.5 nM) was added to the 384-well assay plate; purchased Invitrogen PV4686
T2 sequence (P10828 217-461 limits assumed): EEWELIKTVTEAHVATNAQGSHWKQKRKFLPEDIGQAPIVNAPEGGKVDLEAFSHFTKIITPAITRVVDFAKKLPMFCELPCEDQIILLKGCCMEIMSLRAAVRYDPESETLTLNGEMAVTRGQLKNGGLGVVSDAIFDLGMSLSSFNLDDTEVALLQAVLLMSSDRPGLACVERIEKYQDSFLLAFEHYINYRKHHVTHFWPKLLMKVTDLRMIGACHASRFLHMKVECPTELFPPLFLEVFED
Description: as §1, §2

T1 sequence (P10827 163-410 isoform P10827-2 limits assumed, other chains not shown): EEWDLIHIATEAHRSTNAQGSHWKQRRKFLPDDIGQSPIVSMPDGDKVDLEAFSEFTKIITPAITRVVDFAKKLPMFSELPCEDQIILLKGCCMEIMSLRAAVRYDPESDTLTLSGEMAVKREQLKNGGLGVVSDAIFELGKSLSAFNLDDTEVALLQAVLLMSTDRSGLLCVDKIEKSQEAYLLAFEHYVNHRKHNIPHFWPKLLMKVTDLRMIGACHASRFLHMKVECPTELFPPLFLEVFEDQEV

SMILES | THRα Emax (THR alpha-LBD) | EC50 (THR alpha-LBD) [µM] | THRβ Emax (THR beta-LBD) | EC50 (THR beta-LBD) [µM]
O=c1[nH]c(=O)n(-c2cc(Cl)c(Oc3ccc(O)c(S(=O)(=O)N[C@@H]4CC[C@@H](O)C4)c3)c(Cl)c2)nc1C(F)F (racemic) [Compound 75, 5-(2,6-dichloro-4-(6-(difluoromethyl)-3,5-dioxo-4,5-dihydro-1,2,4-triazin-2(3H)-yl)phenoxy)-2-hydroxy-N-((1R,3R)-3-hydroxycyclopentyl)benzenesulfonamide] | B (40~85) | 0.2 to 1 | C (<75) | 0.002 to 0.02
O=C(c1cc(Oc2c(Cl)cc(-n3nc(Cl)c(=O)[nH]c3=O)cc2Cl)ccc1O)N1C[C@H]2CC[C@@H]1C2 (single isomer, unassigned) [Compound 7] | A (85~110) | 0.002 to 0.2 | A (90~110) | < 0.002
O=C(c1cc(Oc2c(Cl)cc(-n3nc(Cl)c(=O)[nH]c3=O)cc2Cl)ccc1O)N1C[C@@H]2CC[C@H]1C2 (single isomer, unassigned) [Compound 8] | B (40~85) | 0.002 to 0.2 | B (75~90) | < 0.002
CN1C[C@@H](NS(=O)(=O)c2cc(Oc3c(Cl)cc(-n4nc(C(F)F)c(=O)[nH]c4=O)cc3Cl)ccc2O)CC1=O (single isomer, unassigned) [Compound 34] | B (40~85) | 0.2 to 1 | C (<75) | 0.02 to 0.1
CN1C[C@H](NS(=O)(=O)c2cc(Oc3c(Cl)cc(-n4nc(C(F)F)c(=O)[nH]c4=O)cc3Cl)ccc2O)CC1=O (single isomer, unassigned) [Compound 35] | B (40~85) | 0.2 to 1 | C (<75) | 0.02 to 0.1
O=c1[nH]c(=O)n(-c2cc(Cl)c(Oc3cc(S(=O)(=O)N[C@@H]4CC[C@@H]4O)c(O)cn3)c(Cl)c2)nc1C(F)F (stereo in doubt) [Compound 170, 2-[2,6-dichloro-4-[6-(difluoromethyl)-3,5-dioxo-1,2,4-triazin-2-yl]phenoxy]-5-hydroxy-N-[(1R,2S)-2-hydroxycyclobutyl]pyridine-4-sulfonamide] | B (40~85) | 0.2 to 1 | C (<75) | 0.02 to 0.1
O=c1[nH]c(=O)n(-c2cc(Cl)c(Oc3cc(S(=O)(=O)N[C@@H]4CC[C@H]4O)c(O)cn3)c(Cl)c2)nc1C(F)F (stereo in doubt) [Compound 171, 2-[2,6-dichloro-4-[6-(difluoromethyl)-3,5-dioxo-1,2,4-triazin-2-yl]phenoxy]-5-hydroxy-N-[(1R,2R)-2-hydroxycyclobutyl]pyridine-4-sulfonamide] | C (<40) | 0.2 to 1 | C (<75) | 0.02 to 0.1
O=C(NC1CCC1)c1cc(Oc2c(Cl)cc(-n3nc(C(F)F)c(=O)[nH]c3=O)cc2Cl)ccc1O [Compound 1, N-cyclobutyl-5-[2,6-dichloro-4-[6-(difluoromethyl)-3,5-dioxo-1,2,4-triazin-2-yl]phenoxy]-2-hydroxy-benzamide] | B (40~85) | 0.002 to 0.2 | A (90~110) | 0.002 to 0.02
O=C(N[C@H]1C[C@H](O)C1)c1cc(Oc2c(Cl)cc(-n3nc(C(F)F)c(=O)[nH]c3=O)cc2Cl)ccc1O [Compound 2, 5-(2,6-dichloro-4-(6-(difluoromethyl)-3,5-dioxo-4,5-dihydro-1,2,4-triazin-2(3H)-yl)phenoxy)-2-hydroxy-N-((1r,3r)-3-hydroxycyclobutyl)benzamide] | B (40~85) | 0.2 to 1 | B (75~90) | 0.002 to 0.02
O=C(NC1CC(F)(F)C1)c1cc(Oc2c(Cl)cc(-n3nc(C(F)(F)F)c(=O)[nH]c3=O)cc2Cl)ccc1O [Compound 3, 5-[2,6-dichloro-4-[3,5-dioxo-6-(trifluoromethyl)-1,2,4-triazin-2-yl]phenoxy]-N-(3,3-difluorocyclobutyl)-2-hydroxy-benzamide] | B (40~85) | > 1 | A (90~110) | 0.02 to 0.1
CC(C)(C)NC(=O)c1cc(Oc2c(Cl)cc(-n3nc(C(F)(F)F)c(=O)[nH]c3=O)cc2Cl)ccc1O [Compound 4, N-(tert-butyl)-5-(2,6-dichloro-4-(3,5-dioxo-6-(trifluoromethyl)-4,5-dihydro-1,2,4-triazin-2(3H)-yl)phenoxy)-2-hydroxybenzamide] | B (40~85) | 0.2 to 1 | A (90~110) | 0.02 to 0.1
O=C(NC1CCC1)c1cc(Oc2c(Cl)cc(-n3nc(C(F)(F)F)c(=O)[nH]c3=O)cc2Cl)ccc1O [Compound 5, N-cyclobutyl-5-(2,6-dichloro-4-(3,5-dioxo-6-(trifluoromethyl)-4,5-dihydro-1,2,4-triazin-2(3H)-yl)phenoxy)-2-hydroxybenzamide] | B (40~85) | > 1 | A (90~110) | 0.02 to 0.1
O=C(NC12CC3(F)CC(F)(CC(F)(C3)C1)C2)c1cc(Oc2c(Cl)cc(-n3nc(C(F)F)c(=O)[nH]c3=O)cc2Cl)ccc1O [Compound 6, 5-(2,6-dichloro-4-(6-(difluoromethyl)-3,5-dioxo-4,5-dihydro-1,2,4-triazin-2 (3H)-yl)phenoxy)-2-hydroxy-N-(3,5,7-trifluoroadamantan-1-yl) benzamide] | B (40~85) | > 1 | B (75~90) | 0.02 to 0.1
O=c1[nH]c(=O)n(-c2cc(Cl)c(S(=O)(=O)c3ccc(O)c(C4CCC4)c3)c(Cl)c2)nc1C(F)(F)F [Compound 9, 2-[3,5-dichloro-4-(3-cyclobutyl-4-hydroxy-phenyl)sulfonyl-phenyl]-6-(trifluoromethyl)-1,2,4-triazine-3,5-dione] | B (40~85) | 0.2 to 1 | A (90~110) | > 0.1
O=C(NC1CCC1)c1cc(Oc2c(Cl)cc(-n3nc(C(F)(F)F)c(=O)[nH]c3=O)cc2Cl)c(F)cc1O [Compound 10, N-cyclobutyl-5-[2,6-dichloro-4-[3,5-dioxo-6-(trifluoromethyl)-1,2,4-triazin-2-yl]phenoxy]-4-fluoro-2-hydroxy-benzamide] | C (<40) | > 1 | B (75~90) | > 0.1
O=C(NC1CCC1)c1cc(Oc2c(Cl)cc(-n3nc(C(F)F)c(=O)[nH]c3=O)cc2Cl)c(F)cc1O [Compound 11, N-cyclobutyl-5-[2,6-dichloro-4-[6-(difluoromethyl)-3,5-dioxo-1,2,4-triazin-2-yl]phenoxy]-4-fluoro-2-hydroxy-benzamide] | B (40~85) | > 1 | A (90~110) | > 0.1
O=c1[nH]c(=O)n(-c2cc(Cl)c(Oc3ccc(O)c(S(=O)(=O)NC4CCC4)c3)c(Cl)c2)nc1C(F)F [Compound 12, N-cyclobutyl-5-[2,6-dichloro-4-[6-(difluoromethyl)-3,5-dioxo-1,2,4-triazin-2-yl]phenoxy]-2-hydroxy-benzenesulfonamide] | A (85~110) | < 0.002 | A (90~110) | < 0.002
CNS(=O)(=O)c1cc(Oc2c(Cl)cc(-n3nc(C(F)F)c(=O)[nH]c3=O)cc2Cl)ccc1O [Compound 13, 5-(2,6-dichloro-4-(6-(difluoromethyl)-3,5-dioxo-4,5-dihydro-1,2,4-triazin-2(3H)-yl)phenoxy)-2-hydroxy-N-methylbenzenesulfonamide] | A (85~110) | < 0.002 | A (90~110) | < 0.002
O=c1[nH]c(=O)n(-c2cc(Cl)c(Oc3ccc(O)c(S(=O)(=O)NC4CC4)c3)c(Cl)c2)nc1C(F)F [Compound 14, N-cyclopropyl-5-(2,6-dichloro-4-(6-(difluoromethyl)-3,5-dioxo-4,5-dihydro-1,2,4-triazin-2(3H)-yl)phenoxy)-2-hydroxybenzenesulfonamide] | A (85~110) | < 0.002 | A (90~110) | < 0.002
O=c1[nH]c(=O)n(-c2cc(Cl)c(Oc3ccc(O)c([S@TB3](=O)(=O)N4CCOCC4)c3)c(Cl)c2)nc1C(F)F [Compound 15, 2-(3,5-dichloro-4-(4-hydroxy-3-(morpholinosulfonyl)phenoxy)phenyl)-6-(difluoromethyl)-1,2,4-triazine-3,5(2H,4H)-dione] | B (40~85) | < 0.002 | B (75~90) | < 0.002
